According to ChEMBL document CHEMBL1136070, “Design and synthesis of phosphotyrosine mimetics” (Bioorg Med Chem Lett, 2003):

What was measured:
[1] = target: T1, Tyrosine-protein phosphatase non-receptor type 2 (Homo sapiens) (UniProt P17706); test: Compound was tested for inhibition of T-cell protein tyrosine phosphatase TC-PTP at a concentration of 100 uM in fluorometric assay using DiFMUP
T1 sequence (whole entry): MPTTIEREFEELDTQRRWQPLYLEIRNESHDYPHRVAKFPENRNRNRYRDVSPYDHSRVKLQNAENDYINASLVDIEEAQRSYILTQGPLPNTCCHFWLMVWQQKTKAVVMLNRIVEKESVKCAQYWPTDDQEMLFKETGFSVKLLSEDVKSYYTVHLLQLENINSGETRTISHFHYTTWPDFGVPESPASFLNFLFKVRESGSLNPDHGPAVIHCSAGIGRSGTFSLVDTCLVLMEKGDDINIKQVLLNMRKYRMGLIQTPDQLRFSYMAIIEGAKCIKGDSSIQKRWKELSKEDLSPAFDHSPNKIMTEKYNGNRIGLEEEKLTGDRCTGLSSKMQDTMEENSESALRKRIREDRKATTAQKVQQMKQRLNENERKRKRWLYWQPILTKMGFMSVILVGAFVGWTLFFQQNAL

[2] = target: Receptor-type tyrosine-protein phosphatase F (Homo sapiens) (UniProt P10586); test: Compound was tested for inhibition of Lar tyrosine phosphatase at a concentration of 10 uM in fluorometric assay using DiFMUP
Receptor-type tyrosine-protein phosphatase F (Homo sapiens), sequence (P10586 whole entry): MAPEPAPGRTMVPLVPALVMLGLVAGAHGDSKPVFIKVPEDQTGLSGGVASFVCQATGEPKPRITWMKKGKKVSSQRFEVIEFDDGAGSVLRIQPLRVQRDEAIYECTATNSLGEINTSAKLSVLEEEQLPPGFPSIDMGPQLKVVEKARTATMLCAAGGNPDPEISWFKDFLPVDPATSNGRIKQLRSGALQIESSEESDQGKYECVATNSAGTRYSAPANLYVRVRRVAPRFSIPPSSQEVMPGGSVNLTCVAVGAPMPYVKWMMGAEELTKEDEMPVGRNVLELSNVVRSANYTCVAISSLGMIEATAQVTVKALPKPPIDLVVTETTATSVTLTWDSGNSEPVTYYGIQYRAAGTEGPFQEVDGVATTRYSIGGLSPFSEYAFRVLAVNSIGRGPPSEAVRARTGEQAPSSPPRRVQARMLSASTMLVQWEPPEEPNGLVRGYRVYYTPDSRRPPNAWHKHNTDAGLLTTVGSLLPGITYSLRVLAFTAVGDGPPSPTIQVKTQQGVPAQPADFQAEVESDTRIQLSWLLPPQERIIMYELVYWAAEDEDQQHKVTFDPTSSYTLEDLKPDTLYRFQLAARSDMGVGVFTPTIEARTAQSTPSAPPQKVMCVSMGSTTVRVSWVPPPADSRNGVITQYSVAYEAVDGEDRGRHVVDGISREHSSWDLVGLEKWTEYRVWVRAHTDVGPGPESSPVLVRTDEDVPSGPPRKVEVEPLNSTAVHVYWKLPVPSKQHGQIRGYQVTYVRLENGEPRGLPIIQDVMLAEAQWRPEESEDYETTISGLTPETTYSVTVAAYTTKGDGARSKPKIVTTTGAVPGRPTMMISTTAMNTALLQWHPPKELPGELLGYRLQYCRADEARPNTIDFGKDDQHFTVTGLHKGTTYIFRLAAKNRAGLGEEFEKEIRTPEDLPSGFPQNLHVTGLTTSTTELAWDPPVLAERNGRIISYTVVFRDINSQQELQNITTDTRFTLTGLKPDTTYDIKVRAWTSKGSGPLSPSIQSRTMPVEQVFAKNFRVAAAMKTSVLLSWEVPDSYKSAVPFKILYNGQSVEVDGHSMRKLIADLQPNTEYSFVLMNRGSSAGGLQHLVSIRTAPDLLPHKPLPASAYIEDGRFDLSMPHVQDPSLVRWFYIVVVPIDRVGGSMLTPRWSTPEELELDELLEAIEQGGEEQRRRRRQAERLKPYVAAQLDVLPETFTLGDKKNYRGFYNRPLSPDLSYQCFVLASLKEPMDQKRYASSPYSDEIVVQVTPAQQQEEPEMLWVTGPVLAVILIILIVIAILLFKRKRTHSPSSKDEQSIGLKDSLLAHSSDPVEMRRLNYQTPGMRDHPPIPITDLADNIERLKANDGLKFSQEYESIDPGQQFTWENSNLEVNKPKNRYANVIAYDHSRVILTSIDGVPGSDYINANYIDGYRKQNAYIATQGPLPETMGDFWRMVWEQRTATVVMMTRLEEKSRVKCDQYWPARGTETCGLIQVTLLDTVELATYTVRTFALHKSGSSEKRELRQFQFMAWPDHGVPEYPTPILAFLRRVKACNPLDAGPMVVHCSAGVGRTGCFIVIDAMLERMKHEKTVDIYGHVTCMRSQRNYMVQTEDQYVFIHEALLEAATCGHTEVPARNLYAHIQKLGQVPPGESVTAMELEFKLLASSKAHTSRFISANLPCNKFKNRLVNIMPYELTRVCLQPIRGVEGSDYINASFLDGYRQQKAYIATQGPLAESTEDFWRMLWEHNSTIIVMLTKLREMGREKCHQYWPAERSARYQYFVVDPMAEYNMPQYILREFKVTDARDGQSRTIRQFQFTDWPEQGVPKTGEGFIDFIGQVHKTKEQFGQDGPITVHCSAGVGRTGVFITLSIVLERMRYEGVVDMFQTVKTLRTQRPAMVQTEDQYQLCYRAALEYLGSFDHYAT

[3] = target: T1, Tyrosine-protein phosphatase non-receptor type 2 (Homo sapiens); test: Compound was tested for inhibition of T-cell protein tyrosine phosphatase TC-PTP at a concentration of 10 uM in fluorometric assay using DiFMUP
[4] = target: Receptor-type tyrosine-protein phosphatase C (CD45) (Homo sapiens) (UniProt P08575); test: Compound was tested for inhibition of CD45 tyrosine phosphatase at a concentration of 100 uM in fluorometric assay using DiFMUP
Receptor-type tyrosine-protein phosphatase C (CD45) (Homo sapiens), sequence (P08575 whole entry, looked up): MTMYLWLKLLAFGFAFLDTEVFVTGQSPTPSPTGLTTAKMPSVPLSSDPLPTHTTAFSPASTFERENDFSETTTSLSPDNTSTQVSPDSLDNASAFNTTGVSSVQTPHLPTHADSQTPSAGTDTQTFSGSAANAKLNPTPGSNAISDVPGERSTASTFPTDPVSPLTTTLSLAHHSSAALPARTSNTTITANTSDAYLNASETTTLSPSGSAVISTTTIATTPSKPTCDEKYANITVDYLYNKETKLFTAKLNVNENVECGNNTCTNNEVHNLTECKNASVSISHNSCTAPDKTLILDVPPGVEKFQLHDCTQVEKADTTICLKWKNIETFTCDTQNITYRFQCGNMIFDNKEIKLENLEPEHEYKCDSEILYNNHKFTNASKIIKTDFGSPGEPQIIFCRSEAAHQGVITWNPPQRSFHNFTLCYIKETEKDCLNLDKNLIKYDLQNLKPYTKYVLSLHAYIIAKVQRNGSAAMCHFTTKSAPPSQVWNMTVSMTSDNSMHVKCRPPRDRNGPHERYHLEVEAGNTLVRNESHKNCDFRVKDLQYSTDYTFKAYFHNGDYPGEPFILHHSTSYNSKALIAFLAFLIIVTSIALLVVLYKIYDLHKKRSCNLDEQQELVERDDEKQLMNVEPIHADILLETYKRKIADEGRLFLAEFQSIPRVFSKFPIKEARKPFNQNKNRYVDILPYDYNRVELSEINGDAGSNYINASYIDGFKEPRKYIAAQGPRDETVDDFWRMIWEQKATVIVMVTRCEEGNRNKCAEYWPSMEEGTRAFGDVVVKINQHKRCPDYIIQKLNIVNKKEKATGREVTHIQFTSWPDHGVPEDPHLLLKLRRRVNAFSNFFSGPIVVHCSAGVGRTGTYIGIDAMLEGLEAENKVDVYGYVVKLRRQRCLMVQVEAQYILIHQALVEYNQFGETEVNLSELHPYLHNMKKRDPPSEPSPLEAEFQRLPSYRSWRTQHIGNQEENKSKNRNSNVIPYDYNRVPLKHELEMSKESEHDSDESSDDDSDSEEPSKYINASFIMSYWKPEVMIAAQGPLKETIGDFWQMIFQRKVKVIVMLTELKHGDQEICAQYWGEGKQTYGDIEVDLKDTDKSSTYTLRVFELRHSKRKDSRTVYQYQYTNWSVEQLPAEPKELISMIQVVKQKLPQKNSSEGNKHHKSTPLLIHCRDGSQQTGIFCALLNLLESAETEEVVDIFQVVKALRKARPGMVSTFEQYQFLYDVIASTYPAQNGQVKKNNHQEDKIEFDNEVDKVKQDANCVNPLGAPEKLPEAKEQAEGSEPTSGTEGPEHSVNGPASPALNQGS

[5] = target: T2, Tyrosine-protein phosphatase non-receptor type 1 (Homo sapiens) (UniProt P18031); test: Compound was tested for inhibition of Protein-tyrosine phosphatase 1B at a concentration of 10 uM in fluorometric assay using DiFMUP
T2 sequence (whole entry): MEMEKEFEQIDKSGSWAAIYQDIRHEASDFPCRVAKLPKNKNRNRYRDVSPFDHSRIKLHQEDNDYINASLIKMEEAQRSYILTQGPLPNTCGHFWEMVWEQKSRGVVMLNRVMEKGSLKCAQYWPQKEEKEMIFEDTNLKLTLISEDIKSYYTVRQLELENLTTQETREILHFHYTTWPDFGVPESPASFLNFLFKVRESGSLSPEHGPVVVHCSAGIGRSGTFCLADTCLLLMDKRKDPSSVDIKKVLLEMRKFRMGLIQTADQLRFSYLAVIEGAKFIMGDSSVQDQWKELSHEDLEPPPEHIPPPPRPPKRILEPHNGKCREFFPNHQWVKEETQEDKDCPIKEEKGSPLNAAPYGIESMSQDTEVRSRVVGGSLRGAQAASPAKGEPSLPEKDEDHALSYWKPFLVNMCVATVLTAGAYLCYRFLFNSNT

[6] = target: Receptor-type tyrosine-protein phosphatase F (Homo sapiens) (UniProt P10586); test: Compound was tested for inhibition of Lar tyrosine phosphatase at a concentration of 100 uM in fluorometric assay using DiFMUP
[7] = target: Receptor-type tyrosine-protein phosphatase C (CD45) (Homo sapiens) (UniProt P08575); test: Compound was tested for inhibition of CD45 tyrosine phosphatase at a concentration of 10 uM in fluorometric assay using DiFMUP
[8] = target: T2, Tyrosine-protein phosphatase non-receptor type 1 (Homo sapiens); test: Compound was tested for inhibition of Protein-tyrosine phosphatase 1B at a concentration of 100 uM in fluorometric assay using DiFMUP

SMILES	inhibition [1]	inhibition [2]	inhibition [3]	inhibition [4]	inhibition [5]	inhibition [6]	inhibition [7]	inhibition [8]
O=C(O)CCCC1C=CC(C(=O)NC(Cc2ccc3sccc(=O)c3c2)C(=O)O)n2c(=O)n(CC3CCCCC3)c(=O)n21 (configuration not stated)	20%	0%	10%	70%	40%	10%	20%	70%
O=C(O)CCCC1C=CC(C(=O)NC(Cc2ccc3sccc(=O)c3c2)C(=O)O)n2c(=O)n(-c3ccc(Oc4ccccc4)cc3)c(=O)n21 (configuration not stated)	100%	50%	85%	70%	75%	70%	20%	100%
O=C(O)CCCC1C=CC(C(=O)NC(Cc2ccc3sccc(=O)c3c2)C(=O)O)n2c(=O)n(Cc3cc(F)ccc3F)c(=O)n21 (configuration not stated)	100%	25%	85%	50%	0%	50%	5%	95%
CC(Cn1c(=O)n2n(c1=O)C(C(=O)NC(Cc1ccc3sccc(=O)c3c1)C(=O)O)C=CC2CCCC(=O)O)c1ccccc1 (configuration not stated)	90%	10%	20%	55%	55%	50%	15%	95%
